Assay results as given in PMC8153121, “N-Alkylation of Anthracycline Antibiotics by Natural Sesquiterpene Lactones as a Way to Obtain Antitumor Agents with Reduced Side Effects” (Biomedicines, 2021).
Read-outs that look alike come from different tables or passages of the source.

Columns and labels:
[1] = target: T1, complex II of the electron transport chain (Rattus norvegicus, UniProt P21913+Q641Z9+Q6PCT8+Q920L2); assay: Respiratory chain complex II, OCR of isolated rat heart mitochondria (Seahorse); assay type: biochemical; conditions: isolated rat heart mitochondria 10 μg/well, compounds at 30 μM
T1 construct: Rat heart mitochondria were isolated by differential centrifugation; from tissue; host or cells: rat heart mitochondria
Experimental: (§1) Rat heart mitochondria were isolated by differential centrifugation using ice-cold buffer containing KCl (120 mM) and HEPES (20 mM), pH = 7.4, and a trypsin inhibitor. The mitochondrial yield ranged from 5 to 10 mg/mL of protein in the heart sediment. Mitochondria were stored in plastic containers at 4 °C.
(§2) The effect of the compounds on the functioning of the electron transport chain complexes was carried out using an Agilent Seahorse XF96e Analyzer (Seahorse Bioscience, Billerica, MA, USA) according to their ability to change the rate of oxygen uptake by isolated rat heart mitochondria (10 μg/well). The following modulators were used: activators of complex I of the electron transport chain, NADH dehydrogenase,—glutamate/malate; rotenone (2 μM) (Sigma Aldrich, Saint Louis, USA)—a tissue respiration blocker that stops the transfer of electrons from the reduced form of NADH to cytochrome b, was used as complex I inhibitor; potassium succinate ([…]) (Dia-M, Moscow, Russia), which is a substrate of complex II of the electron transport chain, made it possible to assess mitochondrial respiration mediated by succinate dehydrogenase; complex III (ubiquinol-cytochrome c-oxidoreductase) inhibitor—a blocker of cellular respiration antimycin A (Sigma Aldrich, Saint Louis, USA), as well as ascorbate/TMPD (0.5 μM) (Sigma Aldrich, Saint Louis, USA), allowed us to evaluate the cytochrome-c-oxidase mediated respiration of organelles.

[2] = test system: MCF7 (breast cancer); assay: MTT cell viability test, MCF7; assay type: cell-based, Human; conditions: read-out: IC50, MCF7
Experimental: (§3) Human cell cultures of tumor origin (A549 (lung carcinoma), HCT116 (colon adenocarcinoma), MCF7 (breast cancer), RD (embryonic rhabdomyosarcoma)), and the line of non-transformed cells HEK293 (embryonic kidney) provided by the Laboratory of Tumor Cell Genetics at the N.N. Blokhin Russian Cancer Research Institute, as well as by the Institute of Cytology of the Russian Academy of Sciences, were grown in DMEM (Gibco, Scotland, UK) and MEM (Gibco, Scotland, UK) containing fetal calf serum (10% by volume) (ThermoFisher Scientific, Paisley, UK), L-glutamine (2 mM) (Gibco, Scotland, UK), and penicillin-streptomycin (1% by volume) (PanEco, Moscow, Russia).
(§4) Cellular viability was determined by the MTT test. […] After 24 h of incubation, various concentrations of the test compounds dissolved in DMSO (≤1%) were added to the cell cultures, the solvent was added to the control wells in an equal volume, and then the cells were cultured under the same conditions for 72 h. After the incubation time, MTT (3-(4,5-dimethylthiazol-2-yl)-2,5-diphenyltetrazolium bromide, 5 mg/mL) was added to each well, and the plates were further incubated for 2 h (until a characteristic color appeared). Then, the formazan granules were dissolved in DMSO.
(§5) Using a plate analyzer (Cytation3, BioTech Instruments Inc., USA), the optical density was determined at λ = 530 nm.

[3] = test system: RD (embryonic rhabdomyosarcoma); assay: MTT cell viability test, RD; assay type: cell-based, Human; conditions: 72 h, read-out: IC50, RD
Experimental: as §3, §4, §5

[4] = test system: HEK293 (embryonic kidney); assay: MTT cell viability test, non-transformed HEK293; assay type: cell-based, Human; conditions: read-out: IC50, HEK293
Experimental: as §3, §4, §5

[5] = test system: A549 (lung carcinoma); assay: MTT cell viability test, A549; assay type: cell-based, Human; conditions: read-out: IC50, A549
Experimental: as §3, §4, §5

[6] = target: T2, cytochrome-c-oxidase complex of the mitochondrial respiratory chain (IV) (Rattus norvegicus, UniProt P00406+P05503+P05505); assay: Respiratory chain complex IV, OCR of isolated rat heart mitochondria (Seahorse); assay type: biochemical; conditions: isolated rat heart mitochondria 10 μg/well, compounds at 30 μM
T2 construct: Rat heart mitochondria were isolated by differential centrifugation; from tissue; host or cells: rat heart mitochondria
Experimental: as §1, §2

[7] = test system: HCT116 (colon adenocarcinoma); assay: MTT cell viability test, HCT116; assay type: cell-based, Human; conditions: read-out: IC50, HCT116
Experimental: as §3, §4, §5

[8] = test system: rat heart mitochondria; assay: Mitochondrial swelling; assay type: biochemical; conditions: rat heart mitochondria 0.5 mg/mL, compounds at 100 μM, Ca2+ 25 μM
Experimental: as §1
Mitochondrial swelling was recorded by the light transmission of the rat heart mitochondrial suspension at λ = 540 nm using a Victor 3 plate analyzer (Perkin Elmer, Germany). The swelling rate was estimated as △A540/min and was calculated as the tangent of the angle of the steepest dependence curve part △A540 versus time.

[9] = MTT, 72 h, non-transformed cells
[10] = Homo sapiens, MCF7, 72 h, MTT, 72 h
[11] = Homo sapiens, HEK293, 72 h, MTT, 72 h, non-transformed cells
[12] = Homo sapiens, A549, 72 h, MTT, 72 h
[13] = Homo sapiens, HCT-116, 72 h, MTT, 72 h

T2 sequence (P00406 whole entry, other chains not shown): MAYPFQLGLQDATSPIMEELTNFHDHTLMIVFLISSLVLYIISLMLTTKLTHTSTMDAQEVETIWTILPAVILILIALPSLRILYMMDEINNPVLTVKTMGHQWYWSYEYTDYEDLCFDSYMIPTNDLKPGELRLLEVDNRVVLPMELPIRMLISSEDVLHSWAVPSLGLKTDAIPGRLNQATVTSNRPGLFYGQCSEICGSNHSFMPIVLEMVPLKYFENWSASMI
T2 sequence (P05505 whole entry, other chains not shown): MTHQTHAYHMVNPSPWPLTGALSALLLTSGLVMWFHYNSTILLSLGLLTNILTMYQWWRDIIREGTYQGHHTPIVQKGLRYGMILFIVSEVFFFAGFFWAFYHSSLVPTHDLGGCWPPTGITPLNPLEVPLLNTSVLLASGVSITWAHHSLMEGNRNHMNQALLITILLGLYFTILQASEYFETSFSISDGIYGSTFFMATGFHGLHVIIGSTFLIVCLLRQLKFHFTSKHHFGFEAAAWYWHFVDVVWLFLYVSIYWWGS
T1 sequence (Q920L2 35-656): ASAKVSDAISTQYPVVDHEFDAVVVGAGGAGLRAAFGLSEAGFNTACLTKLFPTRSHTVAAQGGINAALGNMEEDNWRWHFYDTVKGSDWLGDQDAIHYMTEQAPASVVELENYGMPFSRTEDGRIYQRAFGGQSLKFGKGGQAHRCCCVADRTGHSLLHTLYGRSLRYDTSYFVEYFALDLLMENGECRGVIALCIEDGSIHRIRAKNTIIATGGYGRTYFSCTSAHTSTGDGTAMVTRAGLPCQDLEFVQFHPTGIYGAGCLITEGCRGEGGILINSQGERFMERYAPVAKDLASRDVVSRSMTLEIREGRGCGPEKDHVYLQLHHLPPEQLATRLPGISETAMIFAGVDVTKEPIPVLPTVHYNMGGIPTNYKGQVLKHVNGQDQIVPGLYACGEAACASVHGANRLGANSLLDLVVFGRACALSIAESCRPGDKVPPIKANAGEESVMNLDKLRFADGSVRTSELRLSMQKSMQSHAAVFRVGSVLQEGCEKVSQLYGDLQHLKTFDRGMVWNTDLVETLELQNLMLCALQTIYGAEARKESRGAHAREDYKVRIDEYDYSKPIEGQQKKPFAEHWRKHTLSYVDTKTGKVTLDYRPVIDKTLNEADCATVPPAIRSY
T1 sequence (P21913 31-282): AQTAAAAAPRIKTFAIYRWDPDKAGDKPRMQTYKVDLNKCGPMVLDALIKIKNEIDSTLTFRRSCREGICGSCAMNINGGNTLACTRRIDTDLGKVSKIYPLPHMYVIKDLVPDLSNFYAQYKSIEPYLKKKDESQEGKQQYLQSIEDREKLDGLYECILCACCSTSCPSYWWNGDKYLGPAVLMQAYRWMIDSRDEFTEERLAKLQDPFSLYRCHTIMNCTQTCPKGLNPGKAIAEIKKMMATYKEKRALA
T1 sequence (Q641Z9 30-169 limits assumed): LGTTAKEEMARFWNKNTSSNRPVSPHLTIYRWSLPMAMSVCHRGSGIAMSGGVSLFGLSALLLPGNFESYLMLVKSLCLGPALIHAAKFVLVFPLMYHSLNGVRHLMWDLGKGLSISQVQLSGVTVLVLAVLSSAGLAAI
T1 sequence (Q6PCT8 57-159): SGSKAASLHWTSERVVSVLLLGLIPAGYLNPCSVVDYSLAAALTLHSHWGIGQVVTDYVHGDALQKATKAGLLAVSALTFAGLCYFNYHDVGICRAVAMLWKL

## COc1cccc2c1C(=O)c1c(O)c3c(c(O)c1C2=O)C[C@@](O)(C(=O)CO)C[C@@H]3O[C@H]1C[C@H](NC[C@H]2C(=O)O[C@@H]3C[C@@]4(C)CCC[C@H](C)C4=C[C@@H]32)[C@H](O)[C@H](C)O1 [Compound 2a]
[1]
  Work of Respiratory Chain Complexes, % Decrease in OCR of Control, II: 39.11 ± 4.05%
[2]; MTT, 72 h
  IC50: 26.8 ± 0.65 µM
[3]; MTT
  IC50: 2.67 ± 0.11 µM
[4]; [9]
  IC50: 29.83 ± 0.18 µM
[5]; MTT, 72 h
  IC50: 3.29 ± 0.11 µM
[6]
  Work of Respiratory Chain Complexes, % Decrease in OCR of Control, IV: 20.45 ± 5.85%
[7]; MTT, 72 h
  IC50: 4.55 ± 0.03 µM
[8]
  Mitochondrial Swelling, % of Ca2+-Induced Swelling: 31.51 ± 8.35%

## C=C1C(=O)O[C@@H]2C[C@@]3(C)CCCC(C)=C3C[C@H]12 [Compound 3, alloalantholactone, reference compound]
[2]; [10]
  IC50: 17.9 ± 0.68 µM
[3]; Homo sapiens, MTT
  IC50: 8.82 ± 0.14 µM
[4]; [11]
  IC50: 35.9 ± 0.48 µM
[5]; [12]
  IC50: 23.1 ± 1.18 µM
[7]; [13]
  IC50: 34.5 ± 3.51 µM

## C=C1C(=O)OC2CC3(C)CCCC4(CO4)C3CC12 (stereo not shown) [Compound 4, epoxy-isoalantholactone, reference compound]
[2]; [10]
  IC50: 31.87 ± 0.14 µM
[3]; Homo sapiens, MTT
  IC50: 18.6 ± 0.21 µM
[4]; [11]
  IC50: 106 ± 4.13 µM
[5]; [12]
  IC50: 83.51 ± 0.26 µM
[7]; [13]
  IC50: 21.4 ± 0.32 µM

## C=C1C(=O)O[C@@H]2C[C@@]3(C)CCC[C@H](C)[C@@]34O[C@H]4[C@H]12 [Compound 5, epoxyalantholactolactone, reference compound]
[2]; [10]
  IC50: 11.4 ± 0.32 µM
[3]; Homo sapiens, MTT
  IC50: 4.81 ± 0.12 µM
[4]; [11]
  IC50: 38.1 ± 1.08 µM
[5]; [12]
  IC50: 21.5 ± 0.75 µM
[7]; [13]
  IC50: 5.12 ± 0.05 µM

## COc1cccc2c1C(=O)c1c(O)c3c(c(O)c1C2=O)CC(O)(C(C)=O)CC3OC1CC(NCC2C(=O)OC3CC4(C)CCCC(C)C45OC5C32)C(O)C(C)O1 (stereo not shown) [Compound 5b]
[1]
  Work of Respiratory Chain Complexes, % Decrease in OCR of Control, II: — (“—” indicates activity absence for compounds (≤10%) in a particular test)
[2]; MTT, 72 h
  IC50: 1.84 ± 0.06 µM
[3]; MTT
  IC50: 0.8 µM
[4]; [9]
  IC50: 18.19 ± 0.18 µM
[5]; MTT, 72 h
  IC50: 1.19 ± 0.02 µM
[6]
  Work of Respiratory Chain Complexes, % Decrease in OCR of Control, IV: 21.56 ± 3.66%
[7]; MTT, 72 h
  IC50: 1.3 ± 0.02 µM
[8]
  Mitochondrial Swelling, % of Ca2+-Induced Swelling: — (“—” indicates activity absence for compounds (≤10%) in a particular test)

## C=C1C(=O)OC2CC3(C)CCCC4(C)OC34CC12 (stereo not shown) [Compound 6, epoxyalloalantholactone, reference compound]
[2]; [10]
  IC50: 38.6 ± 0.86 µM
[2]; MTT, 72 h
  IC50: 24 ± 0.8 µM
[3]; Homo sapiens, MTT
  IC50: 16.8 ± 0.28 µM
[3]; MTT
  IC50: 8.77 ± 0.01 µM
[4]; [11]
  IC50: 29.77 ± 0.05 µM
[4]; [9]
  IC50: 18.5 ± 0.2 µM
[5]; [12]
  IC50: 61.7 ± 2.4 µM
[5]; MTT, 72 h
  IC50: 50.3 ± 1.11 µM
[7]; [13]
  IC50: 10.8 ± 0.18 µM
[7]; MTT, 72 h
  IC50: 9.75 ± 0.57 µM

## COc1cccc2c1C(=O)c1c(O)c3c(c(O)c1C2=O)C[C@@](O)(C(=O)CO)C[C@@H]3O[C@H]1C[C@H](NC[C@H]2C(=O)O[C@@H]3CC4=CCC[C@H](C)[C@@]4(C)[C@@H](O)[C@@H]32)[C@H](O)[C@H](C)O1 [Compound 7a, (8S,10S)-6,8,11-Trihydroxy-10-(((2R,4S,5S,6S)-5-hydroxy-4-((((3S,3aS,4S,4aR,5S,9aR)-4-hydroxy-4a,5-dimethyl-2-oxo-2,3,3a,4,4a,5,6,7,9,9a-decahydronaphtho[2,3-b]furan-3-yl)methyl)amino)-6-methyltetrahydro-2H-pyran-2-yl)oxy)-8-(2-hydroxyacetyl)-1-methoxy-7,8,9,10-tetrahydrotetracene-5,12-dione]
[1]
  Work of Respiratory Chain Complexes, % Decrease in OCR of Control, II: 33.21 ± 3.84%
[2]; Homo sapiens, MCF7, 72 h
  IC50: 6.03 ± 0.11 µM
other
  melting point: 170 to 175 °C
[3]; Homo sapiens
  IC50: 4.22 ± 0.1 µM
[4]; Homo sapiens, HEK293, 72 h
  IC50: 10.5 ± 0.88 µM
[5]; Homo sapiens, A549, 72 h
  IC50: 5.43 ± 0.16 µM
[6]
  Work of Respiratory Chain Complexes, % Decrease in OCR of Control, IV: 38.16 ± 0.84%
[7]; Homo sapiens, HCT-116, 72 h
  IC50: 0.92 µM
[8]
  Mitochondrial Swelling, % of Ca2+-Induced Swelling: — (“—” indicates activity absence for compounds (≤10%) in a particular test)

## C=C1C(=O)O[C@@H]2C[C@@]3(C)CCC=C(C)C3=C[C@H]12 [Compound 8, alanthodiene, reference compound]
[2]; Homo sapiens, MCF7, 72 h
  IC50: 4.31 ± 0.02 µM
[3]; Homo sapiens
  IC50: 4.94 ± 0.09 µM
[4]; Homo sapiens, HEK293, 72 h
  IC50: 9.07 ± 0.25 µM
[5]; Homo sapiens, A549, 72 h
  IC50: 59.9 ± 2.26 µM
[7]; Homo sapiens, HCT-116, 72 h
  IC50: 4.99 ± 0.06 µM
